Results on 21 compounds are retold here after patent publication US20160289186A1, “FLUOROMETHYL-SUBSTITUTED PYRROLE CA[…]” (Grunenthal GmbH, priority 2013, published 2016).

Structures are written as SMILES. Some results are limits rather than exact numbers.

The test has as its target T1, Human CaV2.2 channels (Homo sapiens, UniProt Q00975).
T1 construct: expressed in transfected cells; host or cells: HEK293
In words: Fluorescent (FLIPR) assay for CaV2.2 channels using potassium depolarization to induce channel opening. The conditions noted are these: 3 μM compound; 30 mM KCl assay buffer (inactivated channel state); HEK293 cells stably expressing human CaV2.2; read-out: Activity Category: %-Inhib (CaV2.2) @3 μM @30 mM KCl. The class given is cell-based. The source says:
In the process, the Ca^2+ influx is quantified in the FLIPR assay with the aid of a Ca^2+-sensitive dye (type Fluo-4, Molecular Probes Europe BV, Leiden, the Netherlands) in a fluorescent imaging plate reader (FLIPR 3, Molecular Devices, Sunnyvale, USA), as described hereinafter.
Human CaV2.2 channels were stably expressed in HEK293 cells together with alpha2-delta and beta subunits of voltage gated calcium channels. In addition, an inwardly rectifying potassium channel (Kir2.3) was stably expressed in these cells to augment control of the cell membrane potential by the concentration of extracellular potassium ions. Raise of the extracellular potassium concentration leads to depolarization of the membrane potential and thus regulates the voltage dependent state of CaV2.2 channels. For preparation, cells were seeded in black poly-D-lysine coated 96-well plates (Becton Dickinson, Biocoat 4640) in 100 μL medium [500 mL DMEM/F-12 plus Glutamax (Invitrogen 31331-093) plus 5.5 mL MEM NEAA 100× (Invitrogen 11140-035) plus 50 mL FBS decomplemented (Invitrogen 10270-106) plus 200 μg/mL Geneticin (Invitrogen 10131-027) plus 50 μg/mL Hygromycin B (Invitrogen 10687-010) plus 2 μg/mL Blasticidin (anti-bl5b Invivo-Gen) plus 0.2 μg/mL Puromycin (A 11138-03)] at a cell density of 30.000 cells per well. Plates were incubated at 37° C. (5% CO2) for 20 to 23 h. On the day of experiment medium was discarded and cells were loaded with Fluo 4 by addition of 100 μL of basic assay buffer (10 mM HEPES, 1 mM KCl, 149 mM NaCl, 0.8 mM CaCl2, 1.7 mM MgCl2, 10 mM Glucose, 0.1% BSA. pH 7.4) containing 2 μM Fluo 4 (Molecular Probes; F-14201), 0.01% pluronic acid (Molecular Probes; P-6866) and 2.5 mM probenecid (Molecular Probes; P36400). Cells were incubated in the dark at 25° C. for 60 min. Then dye containing buffer was discarded and 100 μL basic (1 mM KCl) or alternative (30 mM KCl) assay buffer was added. The alternative assay buffer contained altered concentrations of KCl (30 mM) and NaCl (120 mM) and was used in order to promote the inactivated channel state. After that 25 μL of basic or alternative assay buffer with or without test compound were added and cells were incubated again in the dark at 25° C. for 15 min. Fluorescence intensity was measured on a FLIPR 3 instrument (Molecular Devices Corp., Sunnyvale, Calif.) with excitation at 480 nm and emission at 535 nm. After continuously reading fluorescence for 30 sec, 50 μL of basic assay buffer containing 210 mM KCl (NaCl omitted) were added for depolarization. Peak fluorescent signal intensity was determined and the amplitude of the peak signal, normalized to base line, was used to measure channel inhibition by test compounds.

T1 sequence (Q00975 whole entry): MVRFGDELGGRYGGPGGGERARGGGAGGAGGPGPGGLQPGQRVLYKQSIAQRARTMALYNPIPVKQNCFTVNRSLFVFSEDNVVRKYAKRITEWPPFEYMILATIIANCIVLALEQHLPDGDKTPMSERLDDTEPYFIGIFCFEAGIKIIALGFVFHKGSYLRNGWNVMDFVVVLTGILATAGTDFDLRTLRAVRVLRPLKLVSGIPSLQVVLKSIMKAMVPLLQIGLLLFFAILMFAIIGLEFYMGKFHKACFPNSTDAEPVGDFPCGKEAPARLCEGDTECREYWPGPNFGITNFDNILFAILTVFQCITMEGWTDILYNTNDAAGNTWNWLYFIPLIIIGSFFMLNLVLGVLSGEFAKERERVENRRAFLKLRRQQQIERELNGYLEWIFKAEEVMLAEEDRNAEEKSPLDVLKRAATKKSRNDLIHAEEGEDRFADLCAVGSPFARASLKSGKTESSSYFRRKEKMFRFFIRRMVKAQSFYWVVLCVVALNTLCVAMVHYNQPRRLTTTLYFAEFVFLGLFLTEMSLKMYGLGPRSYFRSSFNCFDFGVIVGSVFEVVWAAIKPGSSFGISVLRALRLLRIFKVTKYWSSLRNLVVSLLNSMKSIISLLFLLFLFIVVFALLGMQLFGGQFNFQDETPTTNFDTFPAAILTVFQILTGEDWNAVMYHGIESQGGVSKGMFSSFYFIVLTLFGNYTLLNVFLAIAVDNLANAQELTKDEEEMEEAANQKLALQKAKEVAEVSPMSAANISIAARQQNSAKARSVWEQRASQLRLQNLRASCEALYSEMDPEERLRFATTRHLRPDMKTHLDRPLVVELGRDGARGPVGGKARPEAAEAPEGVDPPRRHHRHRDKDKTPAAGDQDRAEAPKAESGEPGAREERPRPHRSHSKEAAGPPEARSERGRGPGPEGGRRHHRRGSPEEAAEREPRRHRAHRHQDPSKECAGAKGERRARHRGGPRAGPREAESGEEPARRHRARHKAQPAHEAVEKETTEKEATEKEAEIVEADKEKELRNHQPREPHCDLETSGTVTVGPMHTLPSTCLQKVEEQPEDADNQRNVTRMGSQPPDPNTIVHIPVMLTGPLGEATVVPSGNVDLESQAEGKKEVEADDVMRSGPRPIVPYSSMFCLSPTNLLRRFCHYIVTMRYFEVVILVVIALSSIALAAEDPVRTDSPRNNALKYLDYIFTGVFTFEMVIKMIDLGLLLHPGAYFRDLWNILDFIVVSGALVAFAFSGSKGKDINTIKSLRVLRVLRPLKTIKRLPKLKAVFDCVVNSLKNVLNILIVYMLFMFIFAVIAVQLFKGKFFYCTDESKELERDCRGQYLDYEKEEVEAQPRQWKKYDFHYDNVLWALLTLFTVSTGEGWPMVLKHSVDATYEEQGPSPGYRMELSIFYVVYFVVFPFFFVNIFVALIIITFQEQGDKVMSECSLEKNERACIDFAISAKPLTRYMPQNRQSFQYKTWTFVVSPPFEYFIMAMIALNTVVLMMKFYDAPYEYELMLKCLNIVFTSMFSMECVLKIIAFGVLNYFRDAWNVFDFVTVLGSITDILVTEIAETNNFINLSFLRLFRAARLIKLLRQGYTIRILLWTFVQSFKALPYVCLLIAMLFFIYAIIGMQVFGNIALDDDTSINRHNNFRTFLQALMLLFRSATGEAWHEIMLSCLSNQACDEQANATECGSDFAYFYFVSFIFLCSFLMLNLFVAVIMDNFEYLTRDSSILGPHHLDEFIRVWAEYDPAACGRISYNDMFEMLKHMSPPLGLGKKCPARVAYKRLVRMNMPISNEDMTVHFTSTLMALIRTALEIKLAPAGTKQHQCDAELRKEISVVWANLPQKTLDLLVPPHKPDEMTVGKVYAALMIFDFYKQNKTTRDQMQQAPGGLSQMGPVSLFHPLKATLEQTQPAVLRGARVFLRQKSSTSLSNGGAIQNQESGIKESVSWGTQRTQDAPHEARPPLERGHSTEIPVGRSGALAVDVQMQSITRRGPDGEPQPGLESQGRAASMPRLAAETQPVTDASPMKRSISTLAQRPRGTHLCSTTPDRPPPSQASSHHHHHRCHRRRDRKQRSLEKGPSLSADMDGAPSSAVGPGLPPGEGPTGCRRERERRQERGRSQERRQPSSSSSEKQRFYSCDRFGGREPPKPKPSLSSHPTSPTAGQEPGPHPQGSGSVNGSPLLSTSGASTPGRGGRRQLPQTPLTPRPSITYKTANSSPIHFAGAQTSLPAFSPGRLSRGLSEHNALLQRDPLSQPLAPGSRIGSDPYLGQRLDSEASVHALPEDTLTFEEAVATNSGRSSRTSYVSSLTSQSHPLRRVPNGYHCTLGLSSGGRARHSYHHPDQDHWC
T1 sequence (P54284 whole entry, further chain): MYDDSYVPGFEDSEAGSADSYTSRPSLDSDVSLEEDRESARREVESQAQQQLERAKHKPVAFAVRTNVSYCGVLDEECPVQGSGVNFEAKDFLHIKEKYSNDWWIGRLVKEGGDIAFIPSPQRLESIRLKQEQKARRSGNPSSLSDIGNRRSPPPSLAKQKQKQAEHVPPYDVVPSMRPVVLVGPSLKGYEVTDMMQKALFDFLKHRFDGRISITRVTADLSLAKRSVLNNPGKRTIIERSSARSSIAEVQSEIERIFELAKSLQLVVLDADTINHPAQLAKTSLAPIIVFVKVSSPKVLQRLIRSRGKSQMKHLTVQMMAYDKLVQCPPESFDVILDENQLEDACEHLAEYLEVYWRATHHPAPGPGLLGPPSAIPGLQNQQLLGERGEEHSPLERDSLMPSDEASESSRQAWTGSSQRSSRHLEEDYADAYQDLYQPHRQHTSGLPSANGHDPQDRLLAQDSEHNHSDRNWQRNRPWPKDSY
T1 sequence (P54289 25-1103, further chain): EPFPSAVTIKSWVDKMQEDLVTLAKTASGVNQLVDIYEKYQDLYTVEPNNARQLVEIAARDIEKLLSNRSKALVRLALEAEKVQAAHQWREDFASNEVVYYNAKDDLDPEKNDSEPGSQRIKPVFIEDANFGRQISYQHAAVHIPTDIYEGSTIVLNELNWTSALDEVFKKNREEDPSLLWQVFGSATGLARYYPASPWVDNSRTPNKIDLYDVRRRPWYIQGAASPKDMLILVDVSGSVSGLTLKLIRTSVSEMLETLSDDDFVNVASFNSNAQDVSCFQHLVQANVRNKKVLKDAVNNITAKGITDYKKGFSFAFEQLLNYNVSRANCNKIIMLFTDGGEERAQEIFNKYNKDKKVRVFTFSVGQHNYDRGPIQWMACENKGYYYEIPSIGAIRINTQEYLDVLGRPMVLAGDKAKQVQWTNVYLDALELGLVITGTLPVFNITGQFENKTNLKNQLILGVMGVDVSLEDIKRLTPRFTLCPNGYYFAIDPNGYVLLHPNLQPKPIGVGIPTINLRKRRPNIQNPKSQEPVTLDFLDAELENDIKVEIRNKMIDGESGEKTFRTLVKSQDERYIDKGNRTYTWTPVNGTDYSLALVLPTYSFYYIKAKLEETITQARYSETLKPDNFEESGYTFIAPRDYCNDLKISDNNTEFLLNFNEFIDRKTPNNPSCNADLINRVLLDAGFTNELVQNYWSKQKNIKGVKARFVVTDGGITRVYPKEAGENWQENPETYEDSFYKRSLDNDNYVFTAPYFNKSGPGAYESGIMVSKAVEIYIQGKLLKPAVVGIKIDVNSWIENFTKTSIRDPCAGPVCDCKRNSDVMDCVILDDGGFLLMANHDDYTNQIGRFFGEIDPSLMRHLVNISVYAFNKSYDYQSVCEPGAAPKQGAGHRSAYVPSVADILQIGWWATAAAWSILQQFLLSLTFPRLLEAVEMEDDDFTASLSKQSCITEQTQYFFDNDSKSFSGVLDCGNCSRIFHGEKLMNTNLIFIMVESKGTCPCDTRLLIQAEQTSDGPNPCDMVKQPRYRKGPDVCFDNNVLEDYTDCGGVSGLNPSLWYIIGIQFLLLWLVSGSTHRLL

Take `Cc1c(-c2ncc(Cl)cn2)c(C(=O)N(C)C(C)C)n(C(C)C)c1C(F)(F)F` [Example 128, 3-(5-Chloro-pyrimidin-2-yl)-N,1-diisopropyl-N,4-dimethyl-5-(trifluoromethyl)-1H-pyrrole-2-carboxylic acid amide]: the inhibition at 3 µM was 40 to 75%.
On to `CC(C)Cn1c(C(F)(F)F)cc(-c2ccc(F)cc2)c1C(=O)N(C)CC1CCOC1` (stereo not drawn) [Example 058, 3-(4-Fluorophenyl)-N-methyl-1-(2-methyl-propyl)-N-(tetrahydro-furan-3-yl-methyl)-5-(trifluoromethyl)-1H-pyrrole-2-carboxylic acid amide], for which the inhibition at 3 µM was over 95%.
As for `CC(C)Cn1c(C(F)(F)F)cc(-c2ccc(F)cc2)c1C(=O)N(C)CC(C)(C)CN1CCOCC1` [Example 054, N-(2,2-Dimethyl-3-morpholin-4-yl-propyl)-3-(4-fluorophenyl)-N-methyl-1-(2-methyl-propyl)-5-(trifluoromethyl)-1H-pyrrole-2-carboxylic acid amide], the figure is 75 to 95%; as for `Cc1c(-c2ccc(Cl)cc2)c(C(=O)N2CCOCC2)n(C2CC2)c1C(F)(F)F` [Example 043, [3-(4-Chlorophenyl)-1-cyclopropyl-4-methyl-5-(trifluoromethyl)-1H-pyrrol-2-yl]-morpholin-4-yl-methanone], 75 to 95%; as for `CN(CC(C)(C)CN1CCOCC1)C(=O)c1c(-c2ccc(Cl)cc2)cc(C(F)(F)F)n1C1CC1` [Example 017, 3-(4-Chlorophenyl)-1-cyclopropyl-N-(2,2-dimethyl-3-morpholin-4-yl-propyl)-N-methyl-5-(trifluoromethyl)-1H-pyrrole-2-carboxylic acid amide], 75 to 95%.
Regarding `Cc1c(-c2ccc(Cl)cc2)c(C(=O)N2CCOCC2)n(CC2(O)CCCC2)c1C(F)(F)F` [Example 096, [3-(4-Chlorophenyl)-1-[(1-hydroxy-cyclopentyl)-methyl]-4-methyl-5-(trifluoromethyl)-1H-pyrrol-2-yl]-morpholin-4-yl-methanone], the inhibition at 3 µM lay in the range of 75 to 95%.
For `Cc1c(-c2ccc(Cl)cc2)c(C(=O)N2CC3CC2CO3)n(CC(C)C)c1C(F)(F)F` (stereo not drawn) [Example 104, [3-(4-Chlorophenyl)-4-methyl-1-(2-methyl-propyl)-5-(trifluoromethyl)-1H-pyrrol-2-yl]-(2-oxa-5-azabicyclo[2.2.1]heptan-5-yl)-methanone], the inhibition at 3 µM was over 95%.
As for `CN(CC(C)(C)C)C(=O)c1c(-c2ccc(Cl)cc2)cc(C(F)(F)F)n1CC1CCCN1` (stereo not drawn) [Example 091, 3-(4-Chlorophenyl)-N-(2,2-dimethyl-propyl)-N-methyl-1-(pyrrolidin-2-yl-methyl)-5-(trifluoromethyl)-1H-pyrrole-2-carboxylic acid amide], the figure is over 95%; as for `Cc1c(-c2ccc(Cl)cc2)c(C(=O)N(Cc2ccccc2)C2CCOCC2)n(C)c1C(F)(F)F` [Example 001, N-Benzyl-3-(4-chlorophenyl)-1,4-dimethyl-N-tetrahydro-pyran-4-yl-5-(trifluoromethyl)-1H-pyrrole-2-carboxylic acid amide], 75 to 95%.
Turning to `Cc1c(-c2ccc(Cl)cc2)c(C(=O)N(C)CC(C)(C)C)n(C2CC2)c1C(F)(F)F` [Example 039, 3-(4-Chlorophenyl)-1-cyclopropyl-N-(2,2-dimethyl-propyl)-N,4-dimethyl-5-(trifluoromethyl)-1H-pyrrole-2-carboxylic acid amide], the inhibition at 3 µM lay within 75 to 95%.
Regarding `Cc1c(-c2ccc(Cl)cc2)c(C(=O)N(C)Cc2ccnn2C)n(C(C)C)c1C(F)(F)F` [Example 111, 3-(4-Chlorophenyl)-1-isopropyl-N,4-dimethyl-N-[(2-methyl-2H-pyrazol-3-yl)-methyl]-5-(trifluoromethyl)-1H-pyrrole-2-carboxylic acid amide], the inhibition at 3 µM lay in the range of 75 to 95%.
On to `CCn1c(C(=O)N(C)CC(C)(C)C)c(-c2ccc(Cl)cc2)c(C)c1C(F)(F)F` [Example 005, 3-(4-Chlorophenyl)-N-(2,2-dimethyl-propyl)-1-ethyl-N,4-dimethyl-5-(trifluoromethyl)-1H-pyrrole-2-carboxylic acid amide], for which the inhibition at 3 µM lay within 40 to 75%.
The result for `Cc1c(-c2ccc(Cl)cn2)c(C(=O)N2CCN(C(=O)NC(C)(C)C)CC2)n(C(C)C)c1C(F)(F)F` [Example 129, N-tert-Butyl-4-[3-(5-chloro-pyridin-2-yl)-1-isopropyl-4-methyl-5-(trifluoromethyl)-1H-pyrrole-2-carbonyl]-piperazine-1-carboxylic acid amide] reads 75 to 95%; that for `Cc1c(-c2ccc(Cl)cc2)c(C(=O)N(C)CCS(C)(=O)=O)n(CC(C)C)c1C(F)(F)F` [Example 061, 3-(4-Chlorophenyl)-N,4-dimethyl-1-(2-methyl-propyl)-N-(2-methylsulfonyl-ethyl)-5-(trifluoromethyl)-1H-pyrrole-2-carboxylic acid amide], over 95%; that for `Cc1c(-c2ccc(Cl)cc2)c(C(=O)N2CCOC(C)(C)C2)n(CC2CC2)c1C(F)(F)F` [Example 084, [3-(4-Chlorophenyl)-1-(cyclopropyl-methyl)-4-methyl-5-(trifluoromethyl)-1H-pyrrol-2-yl]-(2,2-dimethyl-morpholin-4-yl)-methanone], over 95%.
Turning to `CN(C(=O)c1c(-c2ccc(Cl)cc2)cc(C(F)(F)F)n1C1CC1)C1CC1` [Example 013, 3-(4-Chlorophenyl)-N,1-dicyclopropyl-N-methyl-5-(trifluoromethyl)-1H-pyrrole-2-carboxylic acid amide], the inhibition at 3 µM lay in the range of 75 to 95%.
For the compound `Cc1cc(CN(C)C(=O)c2c(-c3ccc(Cl)cc3)c(C)c(C(F)(F)F)n2C(C)C)no1` [Example 107, 3-(4-Chlorophenyl)-1-isopropyl-N,4-dimethyl-N-[(5-methyl-isoxazol-3-yl)-methyl]-5-(trifluoromethyl)-1H-pyrrole-2-carboxylic acid amide], the inhibition at 3 µM was over 95%.
For `Cc1c(-c2ccc(Cl)cc2)c(C(=O)N(C)C2CCS(=O)(=O)CC2)n(C2CC2)c1C(F)(F)F` [Example 008, 3-(4-Chlorophenyl)-1-cyclopropyl-N-(1,1-dioxo-thian-4-yl)-N,4-dimethyl-5-(trifluoromethyl)-1H-pyrrole-2-carboxylic acid amide], the inhibition at 3 µM lay in the range of 75 to 95%.
The result for `Cc1c(-c2ccc(Cl)cc2)c(C(=O)N(C)C(C)C)n(CC(C)C)c1C(F)(F)F` [Example 109, 3-(4-Chlorophenyl)-N-isopropyl-N,4-dimethyl-1-(2-methyl-propyl)-5-(trifluoromethyl)-1H-pyrrole-2-carboxylic acid amide] reads 75 to 95%.
Take `CN(CC(C)(C)C)C(=O)c1c(-c2ccc(Cl)cc2)cc(C(F)(F)F)n1CC1(O)CCCC1` [Example 090, 3-(4-Chlorophenyl)-N-(2,2-dimethyl-propyl)-1-[(1-hydroxy-cyclopentyl)-methyl]-N-methyl-5-(trifluoromethyl)-1H-pyrrole-2-carboxylic acid amide]: the inhibition at 3 µM is 75 to 95%.
As to `Cc1c(-c2ccc(Cl)cc2)c(C(=O)N(C)CCS(C)(=O)=O)n(CC2(O)CCCC2)c1C(F)(F)F` [Example 094, 3-(4-Chlorophenyl)-1-[(1-hydroxy-cyclopentyl)-methyl]-N,4-dimethyl-N-(2-methylsulfonyl-ethyl)-5-(trifluoromethyl)-1H-pyrrole-2-carboxylic acid amide], the inhibition at 3 µM was over 95%.
